According to patent US7923465B2, “Cannabinoid receptor ligands, pharmaceutical compositions containing them, and process for their preparation” (priority 2005, dated 2011):
Where two headings read alike, the source gives them in different places.

How the values were obtained:
[1] = molecular target: hCB2 (Homo sapiens, UniProt P34972); assay: In vitro binding assay using hCB2-CHO membranes, [3H]-CP-55,940 displacement (Protocol IV); parameters: expressed in transfected cells; host or cells: CHO (hCB2-CHO, generated in-house); details: 1 h; hCB2-CHO membranes, [3H]-CP-55,940 displacement; read-out: % Displacement Protocol IV
Procedure, shortened: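 Displacement of [3H]-CP-55,940 (0.75 nM) from membranes of CHO cells expressing human CB2 (25-50 μg) was measured in Tris-BSA buffer pH 7.4 with 5 mM MgCl2, 1 mM EDTA, 0.1% BSA, 1 h at 30 °C. Test compounds were at 300 nM final; nonspecific binding defined with 0.5 μM CP-55,940. Values are % displacement of specific binding.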

[2] = molecular target: T1, CB1 (Rattus norvegicus, UniProt P20272); assay: GTPγS binding assay, CB1 functional assay in rat cerebellar membrane (Protocol VIII); assay type: biochemical; parameters: 10 μg rat cerebellum membrane; from tissue; host or cells: rat cerebellum membrane, prepared in-house; details: for activation at 1 µM / activation at 0.3 µM: 1 h, read-out: Per Se % Stimulation; for inhibition at 1 µM / inhibition at 0.3 µM: read-out: % Inhibition of WIN-55212-2 induced stimulation; for activation at 0.3 µM: tested at 300 nM; for inhibition at 0.3 µM: tested at 300 nM in presence of 1 μM WIN 55,212-2
Protocol: VIII. Protocol for GTPγS Binding Assay (CB1 Functional Assay in Rat Cerebellar Membrane)
In this GTPγS binding assay, total, basal and nonspecific binding were determined. See Griffin G., Atkinson P. J., Showalter V. M., Martin B. R. and Abood M. E., “Evaluation of cannabinoid receptor agonists and antagonists using the Guanosine-5′-O-(3-(^35S)thio)-triphosphate binding assay in rat cerebellar membranes,” J Pharmacol Exp Ther 285: 553-560, 1998. Three wells for total binding, three wells for basal binding, and three wells for nonspecific binding at 0.2 nM concentration of radioligand were used. Basal binding was defined by 50 μM GDP (Guanosine diphosphate) and non-specific binding was defined by 10 μM unlabeled GTPγS. 10 μg rat cerebellum membrane, 50 μM of GDP, WIN-55212-2 or test compound (1 μM or 300 nM), 10 μM unlabeled GTPγs, and 0.2 nM of [^35S]GTPγS were added into a 96 well plate and the final volume of the reaction mixture was made with GTPγS buffer (50 mM Tris, 3 mM anhydrous MgCl2, 0.2 mM EGTA and 100 mM NaCl pH 7.4) to 200 μl. The plates were incubated at 30° C. for 1 hour. Then the reaction was stopped by filtration using a Whatman GF/B-96 microfilter plate. Three washings were given using Tris-HCl. The radioactivity bound to the brain membrane was retained on the filter disks to which scintillation fluid was added (Microscint PS). Then plates were read for radioactive counts using a Beta Liquid Scintillation Counter (Packard Instruments, Ill., USA).
The rat cerebellar brain membrane was prepared as follow: • 1. Sacrifice the rat and take out the whole brain and separate cerebellum as fast as possible and keep it on ice. • 2. Take the weight of the cerebellum and homogenize in 30 ml of homogenizing buffer (50 mM Tris-HCL containing 1 mM EDTA and 5% sucrose, pH 7.5) using homogenizer in cold condition. • 3. Centrifuge the homogenized cerebellum at 18000 rpm (38000 g) for 15 min at 4° C. • 4. Resuspend the pellet in 5 ml 50 mM Tris-HCL containing 1 mM EDTA and keep it on ice for 30 min. • 5. Pass the membrane through insulin syringe to ensure uniform suspension. • 6. Centrifuge the membrane at 18000 rpm at 4° C. for 20 min. • 7. Reconstitute the pellet in 3 ml of GTPγS buffer and estimate the protein by BCA assay and store the membrane in aliquots of 1000 μg of protein. CB1 Agonist and Antagonist Activity Screening Assay
The test compounds were screened at a final concentration of 1 μM or 300 nM in the absence and presence of 1 μM of WIN 55, 212-2 in the same manner as described in the GTPγS binding assay.
An agonist will stimulate the GTPγS binding over the basal.
An inverse agonist will decrease the basal GTPγS binding and/or produce more than 100% inhibition of the agonist (WIN-55212-2) induced stimulation.
The percent stimulation of GTPγS binding by each test compound at 1 μM or 300 nM concentration in the absence and presence of 1 μM WIN 55, 212-2 was calculated by comparing it with basal specific bound (Basal binding—Non Specific binding) values.

[3] = molecular target: T1, CB1; assay: Rat CB1 receptor binding using brain membrane, [3H]SR141716A displacement (Protocol I); parameters: CB1 receptor present in a rat brain membrane preparation; from tissue; host or cells: rat brain membrane; inhibition: dose or concentration left out as unconfirmed; details: 1 h
[4] = GTPγS binding over basal, rat cerebellar membrane, tested at 1 uM
[5] = GTPγS binding, tested at 1 uM in presence of 1 μM WIN 55,212-2
[6] = rat brain membrane, [3H]SR141716A displacement, read-out: % Displacement Protocol I
[7] = read-out: % Displacement Protocol I, rat brain membrane, [3H]SR141716A displacement
[8] = GTPγS binding over basal, rat cerebellar membrane

hCB2, sequence (P34972 whole entry): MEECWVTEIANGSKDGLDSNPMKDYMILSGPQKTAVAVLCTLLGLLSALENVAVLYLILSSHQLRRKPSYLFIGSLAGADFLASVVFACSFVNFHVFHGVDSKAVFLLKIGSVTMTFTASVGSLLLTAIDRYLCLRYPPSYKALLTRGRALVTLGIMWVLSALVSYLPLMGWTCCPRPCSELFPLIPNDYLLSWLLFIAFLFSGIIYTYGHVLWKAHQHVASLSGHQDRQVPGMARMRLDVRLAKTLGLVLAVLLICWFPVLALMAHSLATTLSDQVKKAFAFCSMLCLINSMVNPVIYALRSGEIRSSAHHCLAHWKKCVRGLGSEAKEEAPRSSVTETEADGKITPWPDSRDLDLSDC
T1 sequence (P20272 whole entry): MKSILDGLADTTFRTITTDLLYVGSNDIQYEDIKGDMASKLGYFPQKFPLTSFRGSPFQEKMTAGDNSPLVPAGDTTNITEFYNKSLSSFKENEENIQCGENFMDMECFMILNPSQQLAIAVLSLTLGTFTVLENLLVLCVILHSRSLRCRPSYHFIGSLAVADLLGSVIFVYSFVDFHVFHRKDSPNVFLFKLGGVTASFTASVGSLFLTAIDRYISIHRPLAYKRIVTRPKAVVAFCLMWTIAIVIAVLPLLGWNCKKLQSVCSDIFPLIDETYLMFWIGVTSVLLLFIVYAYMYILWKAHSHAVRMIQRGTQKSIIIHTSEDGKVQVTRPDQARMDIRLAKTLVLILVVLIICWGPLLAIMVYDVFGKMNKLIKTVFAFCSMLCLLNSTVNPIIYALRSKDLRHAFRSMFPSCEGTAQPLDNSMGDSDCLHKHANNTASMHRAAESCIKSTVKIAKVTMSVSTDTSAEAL

Compound | melting point | inhibition at 0.3 µM [1] | activation at 1 µM [2, 4] | inhibition at 1 µM [2, 5] | inhibition [3, 6] | inhibition [3, 7] | activation at 0.3 µM [2, 8] | inhibition at 0.3 µM ([2]; GTPγS binding) | Per Se % Stimulation [2, 4] | % Inhibition of WIN-55212-2 induced stimulation [2, 5]
O=C(NNc1ccccc1Cl)c1nn(-c2ccc(Cl)cc2)c2c1C1CC3CC(C1)CC2C3 [Example 123, N(7)-(2-Chlorophenylamino)-5-(4-chlorophenyl)-5,6-diazatetracyclo[7.3.1.1^3,11.0^4,8]tetradeca-4(8),6-diene-7-carboxamide] | 155 °C | 47.6% | 13.5% | 99.1% | 89% |  |  |  |  | 
O=C(NNc1ccccc1Cl)c1nn(-c2ccc(Cl)cc2Cl)c2c1C1CC3CC(C1)CC2C3 [Example 174, N(7)-(2-Chlorophenylamino)-5-(2,4-dichlorophenyl)-5,6-diazatetracyclo[7.3.1.1^3,11.0^4,8]tetradeca-4(8),6-diene-7-carboxamide] | 110 °C | 22.5% | -20.8% | 75.5% | 76.4% |  |  |  |  | 
O=C(NNc1ccc(F)cc1F)c1nn(-c2ccc(Cl)cc2)c2c1C1CC3CC(C1)CC2C3 [Example 132, N(7)-(2,4-Difluorophenylamino]-5-(4-chlorophenyl)-5,6-diazatetracyclo[7.3.1.1^3,11.0^4,8]tetradeca-4(8),6-diene-7-carboxamide] | 195 to 196 °C | 3.94% | 7.2% | 89.2% | 64.5% |  |  |  |  | 
O=C(NNc1cccc(F)c1)c1nn(-c2ccc(Cl)cc2)c2c1C1CCC2C1 (centres unmarked) [Example 233, N(3)-[(3-Fluorophenyl)amino]-1-(4-chlorophenyl)-4,5,6,7-tetrahydro-1H-4,7-methano-indazole-3-carboxamide] | 199 °C | 46.2% | -16.3% | 79.5% | 73.2% |  |  |  |  | 
O=C(NNc1ccccc1)c1nn(-c2ccc(Cl)cc2Cl)c2c1C1CCC2C1 (centres unmarked) [Example 256, N(3)-Phenylamino-1-(2,4-dichlorophenyl)-4,5,6,7-tetrahydro-1H-4,7-methano-indazole-3-carboxamide] | 182 to 185 °C |  | -21.5% | 69.7% | 63.3% |  |  |  |  | 
O=C(NCc1ccc(F)cc1)c1nn(-c2ccc(Cl)cc2Cl)c2c1C1CCC2C1 (centres unmarked) [Example 246, N(3)-(4-Fluorobenzyl)-1-(2,4-dichlorophenyl)-4,5,6,7-tetrahydro-1H-4,7-methano-indazole-3-carboxamide] | 106 to 108 °C | 30.4% | 0.7% | 98.9% | 46% |  |  |  |  | 
O=C(NN(c1ccccc1)c1ccccc1)c1nn(-c2ccc(Cl)cc2)c2c1C1CC3CC(C1)CC2C3 [Example 137, N(7)-(N′,N′-Diphenylamino)-5-(4-chlorophenyl)-5,6-diazatetracyclo[7.3.1.1^3,11.0^4,8]tetradeca-4(8),6-diene-7-carboxamide] | 214 °C |  | 13% | 76% |  | 76.7% |  |  |  | 
O=C(NNc1ncccc1Cl)c1nn(-c2ccc(Cl)cc2Cl)c2c1C1CCC2C1 (centres unmarked) [Example 267, N(3)-[(3-chloropyridin-2-yl)amino]-1-(2,4-dichlorophenyl)-4,5,6,7-tetrahydro-1H-4,7-methano-indazole-3-carboxamide] | 95 °C |  |  |  | 90% |  | 12.3% | 43.6% |  | 
O=C(NC1CCCCC1)c1nn(-c2ccc(F)cc2F)c2c1C1CCC2C1 (centres unmarked) [Example 290, N(3)-Cyclohexyl-1-(2,4-difluorophenyl)-4,5,6,7-tetrahydro-1H-4,7-methano-indazole-3-carboxamide] | 119 °C |  | 3.8% | 35.3% |  | 80.3% |  |  |  | 
O=C(NCCc1ccccc1)c1nn(-c2ccc(Cl)cc2Cl)c2c1C1CC3CC(C1)CC2C3 [Example 178, N(7)-(2-Phenylethyl)-5-(2,4-dichlorophenyl)-5,6-diazatetracyclo[7.3.1.1^3,11.0^4,8]tetradeca-4(8),6-diene-7-carboxamide] | 63 to 66 °C | 6.04% | -0.7% | 88% | 47% |  |  |  |  | 
O=C(NNc1ccccc1)c1nn(-c2ccc(Cl)cc2)c2c1C1CC3CC(C1)CC2C3 [Example 121, N(7)-(N′-phenylamino)-5-(4-chlorophenyl)-5,6-diazatetracyclo[7.3.1.1^3,11.0^4,8]tetradeca-4(8),6-diene-7-carboxamide] | 103 to 105 °C | 29.8% |  |  | 65.4% |  |  |  | 16.0% | 81.3%
O=C(NCc1ccc(F)cc1)c1nn(-c2ccc(Cl)cc2Cl)c2c1C1CC3CC(C1)CC2C3 [Example 172, N(7)-(4-Fluorobenzyl)-5-(2,4-dichlorophenyl)-5,6-diazatetracyclo[7.3.1.1^3,11.0^4,8]tetradeca-4(8),6-diene-7-carboxamide] | 68 to 70 °C | 25.1% | -18.3% | 115% | 59.2% |  |  |  |  | 
O=C(NNc1ccccc1)c1nn(-c2ccc(Cl)cc2Cl)c2c1C1CC3CC(C1)CC2C3 [Example 173, N(7)-Phenylamino-5-(2,4-dichlorophenyl)-5,6-diazatetracyclo[7.3.1.1^3,11.0^4,8]tetradeca-4(8),6-diene-7-carboxamide] | 162 to 163 °C |  | 1.3% | 99.5% | 67.1% |  |  |  |  | 
CC12CCC(C1)C(C)(C)C2NC(=O)c1nn(-c2ccc(Cl)cc2Cl)c2c1C1CCC2C1 (centres unmarked) [Example 241, N(3)-(1,3,3-Trimethylbicyclo[2.2.1]hept-2-yl)-1-(2,4-dichlorophenyl)-4,5,6,7-tetrahydro-1H-4,7-methano-indazole-3-carboxamide] | 156 to 159 °C |  |  |  |  | 92.5% | 54.7% | 32.9% |  | 
O=C(NN1CCCCC1)c1nn(-c2ccc(Cl)cc2Cl)c2c1C1CCC2c2ccccc21 (centres unmarked) [Example 502, N(12)-Piperidino-10-(2,4-dichlorophenyl)-10,11-diazatetracyclo[6.5.2.0^2,7.0^9,13]pentadeca-2,4,6,9(13),11-pentaene-12-carboxamide] | 164 to 166 °C |  | 1.8% | 91.1% | 81.3% |  |  |  |  | 
